Consider one compound from ChEMBL document CHEMBL5154916, “Multiparameter Optimization of Naphthyridine Derivatives as Selective α5-GABAA Receptor Negative Allosteric Modulators” (J Med Chem, 2022).

Data set [1] in a line: Clearance in Wistar rat plasma at 1 mg/kg, iv by HPLC-MS/MS analysis. Type of data set: ADME, organism-based.
The target in data set [2] is T1, GABA-A receptor; alpha-5/beta-3/gamma-2 (Homo sapiens) (UniProt P18507+P28472+P31644). Kind of data set: Negative allosteric modulation activity at human recombinant alpha5beta3gamma2 GABAA receptor stably expressed in HEK293 cells assessed as modulation at alpha5 subunit at 1 uM by Patch clamp method. The format is cell-based. As to conditions: filed as negative allosteric modulator.

Data set [3] is described as follows: Ratio of drug level in brain to plasma in Wistar rat at 3 mg/kg, po measured at 1.5 hr post dose. The format is ADME, organism-based. As to conditions: brain and plasma, read-out: BPR.
Data set [4] can be described thus: Passive permeability in human Caco-2 cells assessed as permeability damage ratio at 10 uM by HPLC-UV analysis. The format is ADME, cell-based. As to conditions: caco-2, 10 µM. On the technique in general: Passage across Caco-2 layers is used to estimate intestinal permeability.
For data set [5], the target named is Voltage-gated inwardly rectifying potassium channel KCNH2 (Homo sapiens, UniProt Q12809). Kind of data set: Inhibition of hERG expressed in CHO cells stably at -80 mV holding potential by automated patch clamp method. Type of data set: toxicity, cell-based. In general terms: hERG is a cardiac potassium channel; its block is linked to QT prolongation.
Voltage-gated inwardly rectifying potassium channel KCNH2, sequence (Q12809 whole entry): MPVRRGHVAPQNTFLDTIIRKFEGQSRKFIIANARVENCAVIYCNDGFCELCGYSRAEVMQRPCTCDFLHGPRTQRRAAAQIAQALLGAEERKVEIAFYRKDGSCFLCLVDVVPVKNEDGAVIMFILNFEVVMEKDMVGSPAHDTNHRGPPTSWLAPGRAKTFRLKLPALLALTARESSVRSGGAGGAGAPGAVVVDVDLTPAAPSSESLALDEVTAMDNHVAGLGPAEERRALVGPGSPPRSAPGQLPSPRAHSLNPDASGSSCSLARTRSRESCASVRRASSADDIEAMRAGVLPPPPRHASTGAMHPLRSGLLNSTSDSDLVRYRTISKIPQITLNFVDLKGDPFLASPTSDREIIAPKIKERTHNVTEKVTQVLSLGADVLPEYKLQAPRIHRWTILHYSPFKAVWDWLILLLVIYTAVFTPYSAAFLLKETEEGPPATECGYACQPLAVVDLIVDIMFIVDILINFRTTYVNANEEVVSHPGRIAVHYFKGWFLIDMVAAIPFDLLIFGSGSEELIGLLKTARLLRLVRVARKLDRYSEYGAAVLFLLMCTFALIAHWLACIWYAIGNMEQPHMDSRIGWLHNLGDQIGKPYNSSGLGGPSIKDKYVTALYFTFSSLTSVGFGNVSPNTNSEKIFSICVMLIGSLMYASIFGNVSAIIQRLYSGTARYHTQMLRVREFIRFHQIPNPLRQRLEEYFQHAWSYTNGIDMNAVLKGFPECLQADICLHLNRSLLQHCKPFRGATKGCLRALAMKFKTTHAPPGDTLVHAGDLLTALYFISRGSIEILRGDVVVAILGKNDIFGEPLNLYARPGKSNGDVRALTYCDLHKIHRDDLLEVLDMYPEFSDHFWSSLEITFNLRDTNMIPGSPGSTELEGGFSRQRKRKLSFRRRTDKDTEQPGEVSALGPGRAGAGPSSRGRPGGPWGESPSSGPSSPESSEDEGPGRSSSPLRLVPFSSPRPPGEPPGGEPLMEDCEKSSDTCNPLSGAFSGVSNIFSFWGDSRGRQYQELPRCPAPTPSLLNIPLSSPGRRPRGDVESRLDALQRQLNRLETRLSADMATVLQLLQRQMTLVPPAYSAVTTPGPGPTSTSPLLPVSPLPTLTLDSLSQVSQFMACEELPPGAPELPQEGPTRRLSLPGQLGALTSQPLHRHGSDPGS
The nature of data set [6]: Metabolic stability in Wistar rat liver microsomes assessed as intrinsic clearance at 2.5 uM. Type of data set: ADME, Microsome. The conditions noted are these: read-out: CLH. For orientation: Liver microsomes are vesicles of endoplasmic reticulum, rich in cytochrome P450 enzymes.
A short description of data set [7]: Apparent permeability in human Caco-2 cells at 10 uM by HPLC-UV analysis. Type of data set: ADME, cell-based.
Data set [8] is described as follows: Volume of distribution in Wistar rat plasma at 1 mg/kg, iv by HPLC-MS/MS analysis. The format is ADME, organism-based.
Data set [9] is described as follows: Metabolic stability in human liver microsomes assessed as intrinsic clearance at 2.5 uM. Type of data set: ADME, Microsome. As to conditions: read-out: CLH.
Data set [10] can be described thus: Tmax in Wistar rat total plasma at 1 mg/kg, po by HPLC-MS/MS analysis. Type of data set: ADME, organism-based.
Data set [11] is described as follows: AUC (0 to infinity) in Wistar rat total plasma at 1 mg/kg, po by HPLC-MS/MS analysis. Type of data set: ADME, organism-based. Also on record: time infinity, dose 1 mg/kg, route po.
A short description of data set [12]: Ratio of drug level in brain to plasma in Wistar rat at 1 mg/kg, iv by HPLC-MS/MS analysis. The format is ADME, organism-based. The conditions noted are these: brain and plasma, read-out: BPR.
The nature of data set [13]: AUC (0 to infinity) in Wistar rat total plasma at 1 mg/kg, iv by HPLC-MS/MS analysis. The arrangement: time infinity, dose 1 mg/kg, route iv. Type of data set: ADME, organism-based.
The nature of data set [14]: Half life in Wistar rat total plasma at 1 mg/kg, iv by HPLC-MS/MS analysis. Type of data set: ADME, organism-based.
A short description of data set [15]: Cmax in Wistar rat total plasma at 1 mg/kg, po by HPLC-MS/MS analysis. Also on record: dose 1 mg/kg, route po. Type of data set: ADME, organism-based.
The nature of data set [16]: Half life in Wistar rat total plasma at 1 mg/kg, po by HPLC-MS/MS analysis. The format is ADME, organism-based.
The target in data set [17] is T1, GABA-A receptor; alpha-5/beta-3/gamma-2 (Homo sapiens). Kind of data set: Negative allosteric modulation activity at human recombinant alpha5beta3gamma2 GABAA receptor stably expressed in HEK293 cells assessed as modulation at alpha5 subunit at 10 uM by Patch clamp method. The format is cell-based. The conditions noted are these: filed as negative allosteric modulator.

Data set [18] deals with T2, GABA-A receptor; alpha-5/beta-3/gamma-2 (Homo sapiens, UniProt P18507+P28472+P31644).
T2 sequence (P18507 whole entry): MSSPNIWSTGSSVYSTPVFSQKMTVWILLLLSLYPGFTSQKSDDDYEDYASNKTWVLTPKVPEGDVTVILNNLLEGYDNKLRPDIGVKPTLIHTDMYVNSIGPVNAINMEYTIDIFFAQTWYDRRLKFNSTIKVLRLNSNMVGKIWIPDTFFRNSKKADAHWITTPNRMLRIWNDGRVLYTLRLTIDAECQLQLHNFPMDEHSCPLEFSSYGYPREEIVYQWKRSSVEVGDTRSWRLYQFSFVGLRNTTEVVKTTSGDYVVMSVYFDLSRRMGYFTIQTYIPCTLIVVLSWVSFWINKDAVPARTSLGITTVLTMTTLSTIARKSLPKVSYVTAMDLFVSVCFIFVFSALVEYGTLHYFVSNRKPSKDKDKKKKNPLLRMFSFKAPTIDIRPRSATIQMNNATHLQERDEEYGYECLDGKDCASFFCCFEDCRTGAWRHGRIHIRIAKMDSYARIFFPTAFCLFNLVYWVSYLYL
T2 sequence (P28472 whole entry): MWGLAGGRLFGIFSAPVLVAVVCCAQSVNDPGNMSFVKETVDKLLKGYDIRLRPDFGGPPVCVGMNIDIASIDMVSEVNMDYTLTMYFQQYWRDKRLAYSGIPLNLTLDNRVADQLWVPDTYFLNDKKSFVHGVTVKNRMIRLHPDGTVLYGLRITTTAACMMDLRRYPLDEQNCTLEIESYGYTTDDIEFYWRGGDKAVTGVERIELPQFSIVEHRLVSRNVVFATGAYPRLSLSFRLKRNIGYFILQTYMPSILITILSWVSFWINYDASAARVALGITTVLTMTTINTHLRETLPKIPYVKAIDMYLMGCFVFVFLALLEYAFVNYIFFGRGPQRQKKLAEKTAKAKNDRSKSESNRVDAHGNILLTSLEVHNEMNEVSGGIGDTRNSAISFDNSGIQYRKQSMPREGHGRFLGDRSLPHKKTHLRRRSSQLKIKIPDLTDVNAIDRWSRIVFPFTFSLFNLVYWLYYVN
T2 sequence (P31644 whole entry): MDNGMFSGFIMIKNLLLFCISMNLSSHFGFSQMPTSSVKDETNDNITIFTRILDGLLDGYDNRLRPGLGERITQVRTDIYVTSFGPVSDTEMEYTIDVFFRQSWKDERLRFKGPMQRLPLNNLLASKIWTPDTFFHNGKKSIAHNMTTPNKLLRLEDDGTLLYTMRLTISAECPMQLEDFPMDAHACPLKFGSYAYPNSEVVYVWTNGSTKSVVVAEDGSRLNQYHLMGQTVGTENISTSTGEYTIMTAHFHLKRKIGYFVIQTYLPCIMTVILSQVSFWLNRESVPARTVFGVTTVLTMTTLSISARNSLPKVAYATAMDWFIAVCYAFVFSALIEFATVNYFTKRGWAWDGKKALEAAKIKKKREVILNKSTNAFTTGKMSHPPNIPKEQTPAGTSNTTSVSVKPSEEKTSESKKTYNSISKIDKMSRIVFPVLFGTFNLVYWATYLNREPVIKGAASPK
The experiment in a line: Displacement of [3H]Ro151788 from human recombinant alpha5beta3gamma2 GABAA receptor stably expressed in HEK293 cell membrane assessed as inhibition constant by radioligand binding assay. The format is cell membranes.

Data set [19] deals with GABA-A receptor; alpha-1/beta-3/gamma-2 (Homo sapiens) (UniProt P14867+P18507+P28472). Kind of data set: Negative allosteric modulation activity at human recombinant alpha1beta3gamma2 GABAA receptor stably expressed in HEK293 cells assessed as modulation at alpha1 subunit at 10 uM by Patch clamp method. Type of data set: cell-based. As to conditions: filed as negative allosteric modulator.

A short description of data set [20]: Bioavailability in Wistar rat total plasma at 1 mg/kg, iv by HPLC-MS/MS analysis. Type of data set: ADME, organism-based.

As for `CC(=O)N1Cc2ccc(OCc3c(C)nnn3-c3ccc(F)cc3)nc2C1`, the clearance (as a rule, a measure of how efficiently the substance is removed, as volume per time) in data set [1] was 55.5 mL/min/kg. Moreover, the figures for the Activity in data set [2], in data set [17] and in data set [19] were -19%, -30% and -7%, respectively. In [3], the Kp at 1.5 h was determined as 0.38. For the same compound, the Ratio in data set [4] worked out at 0.9. Also, the half-maximal inhibitory concentration (IC50) (as a rule, the midpoint of a concentration-inhibition curve) in [5] was determined as 30 µM. Besides, the values for the microsomal CLint at 2.5 µM in data set [6] and in data set [9] were 25 µL/min/mg and 9 µL/min/mg, respectively. Besides, in data set [7], the apparent permeability coefficient (Papp) (in general, the rate of passage across a membrane or cell layer, normalised by area and donor concentration) at 10 µM amounted to 54.5 ×10⁻⁶ cm/s. Further, the volume of distribution (Vd) (as a rule, the apparent volume that relates the amount in the body to the concentration in plasma or blood) in [8] was found to be 1.09 L/kg. Besides, in data set [10], the Tmax (in general, the time from dosing to the highest level) turned out to be 30 min. The AUC(0-inf) – broadly, total exposure, with the tail of the curve extrapolated – in [11] turned out to be 43.7 ng·h/mL; in [13] it was 301 ng·h/mL. For the same compound, the Kp in data set [12] was determined as 0.38. In addition, the half-life (as a rule, how long it takes for the measured level to halve) was 13.8 min in data set [14] and 51.6 min in [16]. Also, the concentration in data set [15] peaked (Cmax) at 47.6 ng/mL. For the same compound, the Ki (usually a dissociation constant, usually derived from enzyme kinetics or from competition with a known ligand) in data set [18] amounted to 0.0032 µM. Moreover, the bioavailability (usually the share of a dose that reaches the circulation, judged against a reference dose that is usually intravenous) in data set [20] came to 14.5%.
